Data reported in patent EP0908457B1, “3-(1,2-benzisothiazol- and isoxazol-5-Y1)-2,4(1H,3H)-pyrimidinedione or thione and 3-(1,2-benzisothiazol- and isoxazol-5-y1)-4(3H)-pyrimidinone or thione herbicidal agents” (BASF AKTIENGESELLSCHAFT, priority 1997, dated 1999).

Legend:
[1] = system: Monochoria vaginalis, Presl.; test: Preemergence weed control under flooded paddy conditions, MOOVA (Monochoria); type: in vivo; settings: flooded paddy; for herbicidal effect rating, MOOVA: meaning of each grade not given here
[2] = system: Echinochloa oryzoides (Ard.) Fritsch.; test: Preemergence weed control under flooded paddy conditions, ECHORC (Watergrass (Calif.)); type: in vivo; settings: flooded paddy; for herbicidal effect rating, ECHORC: meaning of each grade not given here
[3] = system: Cyperus serotinus, Rottb.; test: Preemergence weed control under flooded paddy conditions, CYPSE (Flatsedge); type: in vivo; for herbicidal effect rating, CYPSE: meaning of each grade not given here
Cyperus iria = test: Preemergence weed control under flooded paddy conditions, CYPIR (Rice Flatsedge); type: in vivo; settings: flooded paddy; for herbicidal effect rating, CYPIR: meaning of each grade not given here
Sagittaria pygmaea, L. = test: Preemergence weed control under flooded paddy conditions, SAGPY (Arrowhead (Pygmaea)); type: in vivo; settings: flooded paddy; for herbicidal effect rating, SAGPY: meaning of each grade not given here
[4] = system: Oryza sativa, (L.) Tebonnet; test: Rice tolerance to post-transplant applications under flooded paddy conditions (Example 187), ORYSAT (Rice, Tebonnet); settings: for herbicidal effect rating, ORYSAT (rice tolerance) / ORYSAT herbicidal effect rating: rated three to four weeks after treatment; for herbicidal effect rating ORYSAT: rated 3-4 weeks after treatment; for herbicidal effect rating ORYSAT: meaning of each grade not given here
[5] = 0.0313 kg/ha, preemergence weeds, rated three to four weeks after treatment
[6] = 0.0625 kg/ha, preemergence weeds, rated three to four weeks after treatment
[7] = 0.1250 kg/ha, preemergence weeds, rated three to four weeks after treatment
[8] = 0.2500 kg/ha, preemergence weeds, rated three to four weeks after treatment
[9] = Rate 0.0320 kg/ha, preemergence, rated 3-4 weeks after treatment
[10] = Rate 0.0620 kg/ha, preemergence, rated 3-4 weeks after treatment
[11] = Rate 0.1250 kg/ha, preemergence, rated 3-4 weeks after treatment
[12] = Rate 0.2500 kg/ha, preemergence, rated 3-4 weeks after treatment
[13] = Rate 0.5000 kg/ha, preemergence, rated 3-4 weeks after treatment
[14] = Rate 0.0313 kg/ha, preemergence, rated three to four weeks after treatment
[15] = Rate 0.0625 kg/ha, preemergence, rated three to four weeks after treatment
[16] = Rate 0.1250 kg/ha, preemergence, rated three to four weeks after treatment
[17] = Rate 0.2500 kg/ha, preemergence, rated three to four weeks after treatment
[18] = 0.0313 kg/ha, preemergence, rated three to four weeks after treatment
[19] = 0.0625 kg/ha, preemergence, rated three to four weeks after treatment
[20] = 0.1250 kg/ha, preemergence, rated three to four weeks after treatment
[21] = 0.2500 kg/ha, preemergence, rated three to four weeks after treatment

Compound: CCCCOCc1nsc2ccc(-n3c(=O)cc(C(F)(F)F)n(C)c3=O)cc12 [Example 204, 3-[3-(Butoxymethyl)-1,2-benzisothiazol-5-yl]-1-methyl-6-(trifluoromethyl)-2,4(1H,3H)-pyrimidinedione]
- herbicidal effect rating, MOOVA [1, 5]: 0.0
- herbicidal effect rating, MOOVA [1, 6]: 2.0
- herbicidal effect rating, MOOVA [1, 7]: 4.0
- herbicidal effect rating, MOOVA [1, 8]: 7.0
- herbicidal effect rating, ECHORC [2, 5]: 0.0
- herbicidal effect rating, ECHORC [2, 6]: 2.0
- herbicidal effect rating, ECHORC [2, 7]: 4.0
- herbicidal effect rating, ECHORC [2, 8]: 9.0
- herbicidal effect rating, CYPSE [3, 5]: 0.0
- herbicidal effect rating, CYPSE [3, 6]: 0.0
- herbicidal effect rating, CYPSE [3, 7]: 2.0
- herbicidal effect rating, CYPSE [3, 8]: 7.0
- herbicidal effect rating, CYPIR (Cyperus iria; [5]): 9.0
- herbicidal effect rating, CYPIR (Cyperus iria; [6]): 9.0
- herbicidal effect rating, CYPIR (Cyperus iria; [7]): 9.0
- herbicidal effect rating, CYPIR (Cyperus iria; [8]): 9.0
- herbicidal effect rating, SAGPY (Sagittaria pygmaea, L.; [5]): 0.0
- herbicidal effect rating, SAGPY (Sagittaria pygmaea, L.; [6]): 0.0
- herbicidal effect rating, SAGPY (Sagittaria pygmaea, L.; [7]): 0.0
- herbicidal effect rating, SAGPY (Sagittaria pygmaea, L.; [8]): 0.0
- herbicidal effect rating, ORYSAT (rice tolerance) ([4]; 0.0313 kg/ha): 3.0
- herbicidal effect rating, ORYSAT (rice tolerance) ([4]; 0.0625 kg/ha): 4.0
- herbicidal effect rating, ORYSAT (rice tolerance) ([4]; 0.1250 kg/ha): 7.0
- herbicidal effect rating, ORYSAT (rice tolerance) ([4]; 0.2500 kg/ha): 7.0

Compound: C=CS(=O)(=O)NC(=O)COc1ccccc1-c1nsc2ccc(-n3c(=O)cc(C(F)(F)F)n(C)c3=O)cc12 [Example 557, Acetamide, 2-{o-{5-[3,6-dihydro-3-methyl-2,6-dioxo-4-(trifluoromethyl)-1(2H)-pyrimidinyl]-1,2-benzisothiazol-3-yl}phenoxy}-N-(vinylsulfonyl)-]
- herbicidal effect rating, MOOVA [1, 9]: 9.0
- herbicidal effect rating, MOOVA [1, 10]: 9.0
- herbicidal effect rating, MOOVA [1, 11]: 9.0
- herbicidal effect rating, MOOVA [1, 12]: 9.0
- herbicidal effect rating, MOOVA [1, 13]: 9.0
- herbicidal effect rating, ECHORC [2, 9]: 4.3
- herbicidal effect rating, ECHORC [2, 10]: 5.1
- herbicidal effect rating, ECHORC [2, 11]: 6.3
- herbicidal effect rating, ECHORC [2, 12]: 9.0
- herbicidal effect rating, ECHORC [2, 13]: 9.0
- herbicidal effect rating, CYPSE [3, 9]: 0.0
- herbicidal effect rating, CYPSE [3, 11]: 6.0
- herbicidal effect rating, CYPSE [3, 12]: 9.0
- herbicidal effect rating, CYPSE [3, 13]: 5.0
- herbicidal effect rating, CYPIR (Cyperus iria; [9]): 4.0
- herbicidal effect rating, CYPIR (Cyperus iria; [10]): 8.0
- herbicidal effect rating, CYPIR (Cyperus iria; [11]): 9.0
- herbicidal effect rating, CYPIR (Cyperus iria; [12]): 9.0
- herbicidal effect rating, CYPIR (Cyperus iria; [13]): 9.0
- herbicidal effect rating, SAGPY (Sagittaria pygmaea, L.; [9]): 0.0
- herbicidal effect rating, SAGPY (Sagittaria pygmaea, L.; [10]): 0.0
- herbicidal effect rating, SAGPY (Sagittaria pygmaea, L.; [11]): 2.0
- herbicidal effect rating, SAGPY (Sagittaria pygmaea, L.; [12]): 4.0
- herbicidal effect rating, SAGPY (Sagittaria pygmaea, L.; [13]): 4.0
- herbicidal effect rating ORYSAT ([4]; Rate 0.0320 kg/ha): 6.0
- herbicidal effect rating ORYSAT ([4]; Rate 0.0620 kg/ha): 8.0
- herbicidal effect rating ORYSAT ([4]; Rate 0.1250 kg/ha): 8.0
- herbicidal effect rating ORYSAT ([4]; Rate 0.2500 kg/ha): 9.0
- herbicidal effect rating ORYSAT ([4]; Rate 0.5000 kg/ha): 9.0

Compound: Cn1c(C(F)(F)F)cc(=O)n(-c2ccc3snc(COC(CF)CF)c3c2)c1=O [Example 207, 3-{3-{[2-Fluoro-1-(fluoromethyl)ethoxy]methyl}-1,2-benzisothiazol-5-yl}-1-methyl-6-(trifluoromethyl)-2,4(1H,3H)-pyrimidinedione]
- herbicidal effect rating, MOOVA [1, 8]: 7.5
- MOOVA herbicidal effect rating [1, 14]: 4.0
- MOOVA herbicidal effect rating [1, 15]: 4.5
- MOOVA herbicidal effect rating [1, 16]: 5.5
- herbicidal effect rating, ECHORC [2, 8]: 5.5
- ECHORC herbicidal effect rating [2, 14]: 1.0
- ECHORC herbicidal effect rating [2, 15]: 1.5
- ECHORC herbicidal effect rating [2, 16]: 2.0
- herbicidal effect rating, CYPSE [3, 8]: 6.0
- CYPSE herbicidal effect rating [3, 14]: 0.0
- CYPSE herbicidal effect rating [3, 15]: 0.0
- CYPSE herbicidal effect rating [3, 16]: 1.0
- herbicidal effect rating, CYPIR (Cyperus iria; [8]): 8.5
- CYPIR herbicidal effect rating (Cyperus iria; [14]): 5.5
- CYPIR herbicidal effect rating (Cyperus iria; [15]): 6.5
- CYPIR herbicidal effect rating (Cyperus iria; [16]): 8.5
- herbicidal effect rating, SAGPY (Sagittaria pygmaea, L.; [8]): 1.0
- SAGPY herbicidal effect rating (Sagittaria pygmaea, L.; [14]): 0.0
- SAGPY herbicidal effect rating (Sagittaria pygmaea, L.; [15]): 0.0
- SAGPY herbicidal effect rating (Sagittaria pygmaea, L.; [16]): 0.0
- herbicidal effect rating, ORYSAT (rice tolerance) ([4]; 0.2500 kg/ha): 7.5
- ORYSAT herbicidal effect rating ([4]; Rate 0.0313 kg/ha): 5.0
- ORYSAT herbicidal effect rating ([4]; Rate 0.0625 kg/ha): 6.0
- ORYSAT herbicidal effect rating ([4]; Rate 0.1250 kg/ha): 7.0

Compound: C=C(C)C1CC=C(COCc2nsc3ccc(-n4c(=O)ccn(C)c4=O)cc23)CC1 (centres unmarked) [Example 211, 1-Methyl-3-{3-{{[4-(1-methylvinyl)-1-cyclohexen-1-yl]methoxy}methyl}-1,2-benzisothiazol-5-yl}-2,4(1H,3H)-pyrimidinedione]
- MOOVA herbicidal effect rating [1, 14]: 9.0
- MOOVA herbicidal effect rating [1, 15]: 9.0
- MOOVA herbicidal effect rating [1, 16]: 9.0
- MOOVA herbicidal effect rating [1, 17]: 9.0
- ECHORC herbicidal effect rating [2, 14]: 2.0
- ECHORC herbicidal effect rating [2, 15]: 4.0
- ECHORC herbicidal effect rating [2, 16]: 7.0
- ECHORC herbicidal effect rating [2, 17]: 9.0
- CYPSE herbicidal effect rating [3, 14]: 0.0
- CYPSE herbicidal effect rating [3, 15]: 0.0
- CYPSE herbicidal effect rating [3, 16]: 0.0
- CYPSE herbicidal effect rating [3, 17]: 0.0
- CYPIR herbicidal effect rating (Cyperus iria; [14]): 0.0
- CYPIR herbicidal effect rating (Cyperus iria; [15]): 0.0
- CYPIR herbicidal effect rating (Cyperus iria; [16]): 4.0
- CYPIR herbicidal effect rating (Cyperus iria; [17]): 4.0
- SAGPY herbicidal effect rating (Sagittaria pygmaea, L.; [14]): 0.0
- SAGPY herbicidal effect rating (Sagittaria pygmaea, L.; [15]): 0.0
- SAGPY herbicidal effect rating (Sagittaria pygmaea, L.; [16]): 0.0
- SAGPY herbicidal effect rating (Sagittaria pygmaea, L.; [17]): 0.0
- ORYSAT herbicidal effect rating ([4]; Rate 0.0313 kg/ha): 2.0
- ORYSAT herbicidal effect rating ([4]; Rate 0.0625 kg/ha): 2.0
- ORYSAT herbicidal effect rating ([4]; Rate 0.1250 kg/ha): 2.0
- ORYSAT herbicidal effect rating ([4]; Rate 0.2500 kg/ha): 3.0

Compound: COC(=O)C(C)Oc1ccc(C(C)C)cc1-c1nsc2ccc(-n3c(=O)cc(C(F)(F)F)n(C)c3=O)cc12 (centres unmarked) [Example 30, Methyl 2-{2-{5-[3,6-dihydro-3-methyl-4-(trifluoromethyl)-2,6-dioxo-1(2H)-pyrimidinyl]-1,2-benzisothiazol-3-yl}-4-isopropylphenoxy}propionate]
- herbicidal effect rating, MOOVA [1, 18]: 9.0
- herbicidal effect rating, MOOVA [1, 19]: 9.0
- herbicidal effect rating, MOOVA [1, 20]: 9.0
- herbicidal effect rating, MOOVA [1, 21]: 9.0
- herbicidal effect rating, ECHORC [2, 18]: 6.5
- herbicidal effect rating, ECHORC [2, 19]: 8.5
- herbicidal effect rating, ECHORC [2, 20]: 9.0
- herbicidal effect rating, ECHORC [2, 21]: 9.0
- herbicidal effect rating, CYPSE [3, 18]: 0.0
- herbicidal effect rating, CYPSE [3, 19]: 0.0
- herbicidal effect rating, CYPSE [3, 20]: 4.0
- herbicidal effect rating, CYPSE [3, 21]: 2.0
- herbicidal effect rating, CYPIR (Cyperus iria; [18]): 2.0
- herbicidal effect rating, CYPIR (Cyperus iria; [19]): 6.0
- herbicidal effect rating, CYPIR (Cyperus iria; [20]): 8.0
- herbicidal effect rating, CYPIR (Cyperus iria; [21]): 8.0
- herbicidal effect rating, SAGPY (Sagittaria pygmaea, L.; [18]): 0.0
- herbicidal effect rating, SAGPY (Sagittaria pygmaea, L.; [19]): 0.0
- herbicidal effect rating, SAGPY (Sagittaria pygmaea, L.; [20]): 2.0
- herbicidal effect rating, SAGPY (Sagittaria pygmaea, L.; [21]): 7.0
- herbicidal effect rating, ORYSAT (rice tolerance) ([4]; 0.0313 kg/ha): 2.0
- herbicidal effect rating, ORYSAT (rice tolerance) ([4]; 0.0625 kg/ha): 3.0
- herbicidal effect rating, ORYSAT (rice tolerance) ([4]; 0.1250 kg/ha): 3.0
- herbicidal effect rating, ORYSAT (rice tolerance) ([4]; 0.2500 kg/ha): 3.5
